Laboratory results from patent US5049673A, “Fluorescent indicator dyes for calcium working at long wavelengths” (The Regents of the University of California, priority 1987, dated 1991).
Read-outs that look alike come from different tables or passages of the source. Each block holds one compound with its values, some of them ahead of it.

Experiments:
[1] = cited from earlier work
[2] = parent compounds, literature; read-out: Ca^2+ dissociation constant of parent compounds; cited from earlier work
[3] = for Kd: read-out: Effective dissociation constant Kd for Ca^2+, pH 7.0-7.5, ionic strengths 0.1-0.15
[4] = Absorbance and fluorescence properties in the presence and absence of Ca2+; assay type: physicochemical
Experimental: FIG. 4. Excitation (A) and emission (B) spectra for fluo-3 at 22°±2° C. in buffers with free Ca^2+ values ranging from <1 nM to 58 microM. The titration was done starting with 3.5 ml of 100 mM KCl, 10 mM K-MOPS, 10 mM K2 H2 EGTA, 15 microM fluo-3, pH 7.03. The "O" Ca spectrum was recorded, then to reach n mM CaEGTA, (10-n) mM EGTA, n=1-10, aliquots of 3.5/(11-n) ml were iteratively discarded and replaced by equal volumes of 100 mM KCl, 10 mM K-MOPS, 10 mM K2 CaEGTA, 15 microM fluo-3, pH 7.0. After each iteration the pH (range 6.99 to 7.05) and spectra were recorded; each spectrum is labeled by the calculated free Ca^2+ in micromolar. The excitation and emission bandwidths were 1.9 nm and 4.6 nm respectively. All spectra have been normalized with respect to the peak of the 58 microM (n=10) curve. In A, emission was collected at 530 nm, and the excitation was corrected for lamp and monochromator characteristics using a rhodamine B quantum counter. In B, excitation was at 490 nm, and the emission spectrum is uncorrected for monochromator and detector sensitivity. The slightly low amplitude of the curve at 3.6 microM [Ca^2+ ] is probably due to a small error in resetting the excitation monochromator to 490 nm.
(§1) FIG. 6. The product of fluorescence quantum efficiency and extinction coefficient vs. free [Ca^2+ ] (note log axes for both) for quin-2, fura-2, indo-1, rhod-2, and fluo-3. All data are for room temperature, 0.1 M KCl, no added Mg^2+. […] The curve for fluo-3 used the data of Table I with extinction coefficients of 7.5×10^4 to 8.35×10^4 at 506 nm; the curve for rhod-2 assumed a Ca^2+ -independent extinction coefficient of 1×10^5 M^-1 cm^-1.
Examples of the synthetic routes than can be used to produce the new dyes of the present invention are outlined in FIGS. 2 and 3. Full descriptions of the reaction conditions are described below under the section entitled Compound Synthesis. Optical spectra were measured as described by Grynkiewicz, et al. (1985). (See ref. 9.) Quantum efficiencies of fluorescence were obtained (see ref. 10) by comparing the integral of the corrected emission spectrum of the test sample with that of a solution of rhodamine B in ethanol, quantum efficiency assumed to be 0.97 (see ref. 11), or fluorescein in 0.1 M NaOH, quantum efficiency 0.91 (see ref. 10). The concentration of the reference dye was adjusted to match the absorbance of the test sample at the wavelength of excitation.
The absorbance and fluorescence properties for the new indicators in the presence and absence of Ca^2+ are shown in Table I. The absorbance spectra were much as one would expect for rhodamine or fluorescein chromophores, though extinction coefficients (not shown) were often low in the dyes as initially isolated. Because fluo-3 appeared to be a very useful indicator compound, extra effort was expended in its purification. Eventually, quite respectable extinction coefficients were obtained, 7.9×10^4 and 8.3×10^4 M^-1 cm^-1 at 503 and 506 nm, respectively for free and Ca^2+ -bound fluo-3. Ca^2+ binding was expected to shift the absorbance maxima to longer wavelengths,since it would prevent the BAPTA amino nitrogen from donating electron density to the 9-position of the xanthene. Electron-withdrawal and donation to the central carbon of triphenylmethane dyes are known to shift absorbance peaks to longer and shorter wavelengths, respectively (see ref. 19). Indeed, Ca^2+ binding caused red shifts, but of very small magnitude, 1-3 nm, and with little change in peak height.
Fluo-3 has a visibly pinkish tinge because its chlorine atoms shift its spectra to wavelengths slightly longer than those of fluo-2, just as 2,7-dichlorofluorescein is bathochromically shifted from fluorescein. […] Thus the Ca^2+ complex of fluo-3 fluoresced 35- to 40-fold more brightly than the Ca^2+ -free dye (see FIG. 4). This degree of enhancement is the greatest yet reported for a fluorescent Ca^2+ indicator. […]

[5] = Mg2+ dissociation constant in Mg2+/EGTA buffers
Experimental: Free [Mg2+] was controlled by Mg^2+ /EGTA buffers assuming an apparent dissociation constant for the Mg^2+ /EGTA complex (including its monoprotonated form) of 6 mM at pH 7.60, 0.12 M ionic strength, 20°, as calculated from the data of Martell & Smith (see ref. 12).

[6] = Photochemical stability, xenon arc illumination of air-saturated solutions; assay type: physicochemical
From the text: Fluo-3 was briefly checked for photochemical stability. […] Since the biological usability of fluorescein is well established, the photochemical resistance of fluo-3 would seem to be adequate if not outstanding.

[7] = Product of fluorescence quantum efficiency and extinction coefficient vs free [Ca2+] (FIG. 6); assay type: physicochemical
From the text: as §1
Whereas fura-2 and indo-1 were clearly much more intensely fluorescent than quin-2, enabling measurements with much less added dye and Ca^2+ buffering, comparison of the brightness of the new dyes with that of fura-2 and indo-1 is more complex of the different operating wavelengths. The simplest measure of the intrinsic brightness of a fluorophore is the product of its emission quantum efficiency and its extinction coefficient at the appropriate excitation wavelength (see FIG. 6). At the present time, extinction coefficients are known only for fluo-3, though one may estimate the values for the other indicators from purified model xanthene dyes (9-10×10^4 M^-1 cm^31 1). For fluo-3, the quantum efficiency×extinction coefficient ranges from 3×10^3 to 1.5×10^4 M^-1 cm^-1 for Ca^2+ values from 10^-7 M up to saturation, slightly less than the corresponding values for fura-2 excited at 340 nm, 5×10^3 to 1.6× 10^4 M^-1 cm^-1 (see FIG. 6). However, it is easier to generate higher excitation intensities at longer wavelengths, and autofluorescence will be lower, so the actual concentrations of dye needed to overcome dark current and autofluorescence may be fairly similar for the two families. On the other hand, the relatively small separation between excitation and emission peaks of the new dyes makes more stringent demands on monochromators and filters to exclude scattered light.
The Ca^2+ affinities of the new dyes are two to ten-fold weaker than those of their UV-excited predecessors. […]

[8] = cited from earlier work; for Kd: room temperature, 0.1 M KCl, no added Mg^2+, read-out: Ca^2+ dissociation constant (Kd) used for FIG. 6

SMILES: O=c1ccc2c(-c3ccccc3)c3ccc(O)cc3oc-2c1 [9-phenylfluorone]
Quantum efficiency of model compound [1]: 0.21

SMILES: O=C(O)CN(CC(=O)O)c1ccccc1OCCOc1ccccc1N(CC(=O)O)CC(=O)O [BAPTA, 1,2-bis(2-amino-phenoxy)ethane N,N,N',N'-tetraacetic acid]
Kd [2]: 0.11 µM

Kd [3]: 0.7 µM
pH dependence of fluorescence: some pH dependence
Fluorescence maxima, emission, with excess Ca [4]: 521 nm
Fluorescence maxima, excitation, with excess Ca [4]: 499 nm
Fluorescence quantum efficiency, excess Ca [4]: .014
Fluorescence quantum efficiency, zero Ca [4]: .0042
SMILES: Cc1ccc(N(CC(=O)O)CC(=O)O)c(OCCOc2cc(-c3c4ccc(=O)cc-4oc4cc(O)ccc34)c(O)cc2N(CC(=O)O)CC(=O)O)c1 [fluo-1, 9-(6-hydroxy-4-bis(carboxymethyl)amino-3-(2-(2-bis(carboxymethyl)amino-5-methylphenoxy)ethoxy)phenyl)-6-hydroxy-3H-xanthen-3-one]
Lowering of Ca^2+ affinity by hydroxy group vs unsubstituted rhod-2 and fluo-2 ([3]; vs rhod-2 and fluo-2): more than two-fold
Fluorescence ratio, excess vs. zero Ca [4]: 3.3

Kd [3]: 0.37 µM
Fluorescence quenching on titration from pH 7.7 to 4.1 (absence of Ca^2+): almost completely quenched
Ratio between the brightness of the deprotonated and the protonated species (absence of Ca^2+): 67
Fluorescence maxima, emission, with excess Ca [4]: 518 nm
Fluorescence maxima, excitation, with excess Ca [4]: 493 nm
Fluorescence quantum efficiency, excess Ca [4]: .125
Fluorescence quantum efficiency, zero Ca [4]: .004
SMILES: Cc1ccc(N(CC(=O)O)CC(=O)O)c(OCCOc2cc(-c3c4ccc(=O)cc-4oc4cc(O)ccc34)ccc2N(CC(=O)O)CC(=O)O)c1 [fluo-2, 9-(4-bis(carboxymethyl)amino-3-(2-(2-bis(carboxymethyl)amino-5-methylphenoxy)ethoxy)phenyl)-6-hydroxy-3H-xanthen-3-one]
Fluorescence ratio, excess vs. zero Ca [4]: 31

Kd [3]: 0.45 µM
Amino pKa, independent rough confirmation from intermediate [Ca^2+] curves (100 mm kcl, tris-mops): about 6.2
pKa of amino nitrogen (100 mm kcl, tris-mops): about 6.2
pKa of chromophore (absorbance spectrum or fluorescence amplitude of Ca^2+-complex) (100 mm kcl, tris-mops): 4.5-4.6
Increase of fluorescence of Ca^2+-free dye, pH 8 to pH 5 (Ca^2+-free, maximal): ≤ 3 fold
Fluorescence enhancement by Mg^2+ binding ([5]; Mg^2+ binding): about 1.4 fold
Kd ([5]; read-out: Mg^2+ dissociation constant, 25°, 0.1-0.15 M ionic strength): 9000 µM
Photobleaching rate, Ca^2+ complex ([6]; Ca^2+ complex): bleached about half as quickly
Extinction coefficient, free dye ([4]; 503 nm, free): 79000 M⁻¹ cm⁻¹
Extinction coefficient, Ca^2+-bound dye ([4]; 506 nm, Ca^2+-bound): 83000 M⁻¹ cm⁻¹
Fluorescence maxima, emission, with excess Ca [4]: 526 nm
Fluorescence maxima, excitation, with excess Ca [4]: 506 nm
Fluorescence quantum efficiency, excess Ca [4]: .183
Fluorescence quantum efficiency, zero Ca [4]: .0051
SMILES: Cc1ccc(N(CC(=O)O)CC(=O)O)c(OCCOc2cc(-c3c4cc(Cl)c(=O)cc-4oc4cc(O)c(Cl)cc34)ccc2N(CC(=O)O)CC(=O)O)c1 [fluo-3, 9-(4-bis(carboxymethyl)amino-3-(2-(2-bis(carboxymethyl)amino-5-methylphenoxy)ethoxy)phenyl)-2,7-dichloro-6-hydroxy-3 H-xanthen-3-one]
Effect of added chlorines on Ca^2+ affinity [3]: very little effect
Effectiveness of intermediate Ca^2+ at enhancing fluorescence at pH 6.1-6.2 vs pH ~8 (pH about 6.1-6.2 vs pH ~8): about half as effective
Effect of Mg^2+ binding on chelator fluorescence [5]: relatively little effect
Photobleaching rate, Ca^2+-free ([6]; Ca^2+-free): bleached at about the same rate as ordinary fluorescein anion
Fluorescence enhancement, Ca^2+ complex vs Ca^2+-free dye ([4]; Ca^2+ complex vs free dye): 40 fold
Fluorescence ratio, excess vs. zero Ca [4]: 36-40
[Ca^2+] giving double the fluorescence at zero [Ca^2+] [7]: 11 nM
Conversion to Ca^2+ complex at 11 nM [Ca^2+] ([7]; 11 nM [Ca^2+]): 2.5%
Brightness of Ca^2+ complex relative to free dye (in words) ([7]; Ca^2+ complex vs free dye): forty-fold brighter

SMILES: O=C1OC2(c3ccc(O)cc3Oc3cc(O)ccc32)c2ccccc21 [fluorescein]
Quantum efficiency of reference dye in 0.1 M NaOH ([1]; 0.1 M NaOH): 0.91

SMILES: Cc1ccc(N(CC(=O)O)CC(=O)O)c(OCCOc2cc(-c3cc4ccc(C(=O)O)cc4[nH]3)ccc2N(CC(=O)O)CC(=O)O)c1 [indo-1]
Kd [8]: 0.25 µM

SMILES: COc1cc(N(CC(=O)O)CC(=O)O)c2nc(COc3cc(C)ccc3N(CC(=O)O)CC(=O)O)ccc2c1 [quin-2, 2-[[2-[bis(carboxymethyl)amino]-5-methylphenoxy]-6-methoxy-8-bis(carboxymethyl)amino]quinolline]
Extinction coefficient at 339 nm ([8]; 339 nm, independent of Ca^2+): 4600 M⁻¹ cm⁻¹
Kd [8]: 0.078 µM

Kd [3]: 1 µM
Fluorescence maxima, emission, with excess Ca [4]: 576 nm
Fluorescence maxima, excitation, with excess Ca [4]: 553 nm
Fluorescence quantum efficiency, excess Ca [4]: .102
Fluorescence quantum efficiency, zero Ca [4]: .03
SMILES: Cc1ccc(N(CC(=O)O)CC(=O)O)c(OCCOc2cc(-c3c4ccc(=[N+](C)C)cc-4oc4cc(N(C)C)ccc34)ccc2N(CC(=O)O)CC(=O)O)c1 [rhod-2]
Fluorescence ratio, excess vs. zero Ca [4]: 3.4

SMILES: CCN(CC)c1ccc2c(-c3ccccc3C(=O)O)c3ccc(=[N+](CC)CC)cc-3oc2c1 [rhodamine B]
Quantum efficiency of reference dye in ethanol ([1]; in ethanol): 0.97
